Measured values taken from paper PMC9578396, “Intrinsic Antibacterial Activity of Xeruborbactam In Vitro: Assessing Spectrum and Mode of Action” (Antimicrobial Agents and Chemotherapy, 2022).
Several values for one entry are separate records, joined by “and”; a condition that tells them apart may be missing. Identical values can stand only once. Like-named read-outs stand apart in the source and are kept apart here.

Tests used:
[1] = tested on: Klebsiella pneumoniae; test: microbe, parasite or virus in culture; type: cell-based; settings: for MIC: Klebsiella pneumoniae
Summary of the method: (§1)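 Test organisms were KPC-producing clinical isolates (some enriched for porin mutations), matched isolates that lost KPC plasmids, and engineered porin/efflux mutant strains. Susceptibility was measured by broth microdilution following CLSI methods, using panels prepared in-house.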

[2] = tested on: Escherichia coli; test: Broth microdilution MIC (CLSI), Escherichia coli; type: cell-based
Summary of the method: as §1

O=C(O)c1c(F)ccc2c1OB(O)[C@@H]1C[C@H]21 [Xeruborbactam]
MIC ([1]; KPM4240, TolQ::S25Y): 32 µg/mL
MIC ([1]; Klebsiella pneumoniae isolates, read-out: highest MIC observed): 64 µg/mL
MIC ([1]; clinical isolate KP1004, OmpK35 NF, OmpK36 FN, read-out: MIC): 16 µg/mL
MIC ([1]; clinical isolate KP1070, OmpK35 NF, OmpK36 FN, read-out: MIC): 8 µg/mL
MIC ([1]; clinical isolate KP1074, OmpK35 NF, OmpK36 PFN (GD), read-out: MIC): 32 µg/mL
MIC ([1]; clinical isolate KP1093, OmpK35 NF, OmpK36 PFN (GD), read-out: MIC): 32 µg/mL
MIC ([1]; clinical isolate KP1251, OmpK35 NF, OmpK36 FN, read-out: MIC): 16 µg/mL
MIC ([1]; clinical isolate KP1274, OmpK35 FN, OmpK36 FN, read-out: MIC): 8 µg/mL
MIC ([1]; clinical isolate KP1463, OmpK35 NF, OmpK36 NF, read-out: MIC): 64 µg/mL
MIC ([1]; clinical isolate KP1469, OmpK35 NF, OmpK36 NF, read-out: MIC): 64 µg/mL
MIC ([1]; clinical isolate KP1598, OmpK35 NF, OmpK36 PFN (GD), read-out: MIC): 64 µg/mL
MIC ([1]; strain KPM1026a measured at 30°C (Fig. 6), read-out: MIC): 32 µg/mL
MIC ([1]; strain KPM1026a, wild type, read-out: MIC): 16 µg/mL
MIC ([1]; strain KPM1026a, read-out: MIC): 16 µg/mL
MIC ([1]; strain KPM1027, ramR, read-out: MIC): 16 µg/mL
MIC ([1]; strain KPM1171, lacks porins and overexpresses AcrAB): 64 µg/mL
MIC ([1]; strain KPM1171, ramR ompK36_1171, read-out: MIC): 64 µg/mL
MIC ([1]; strain KPM2040, ompK36_2040, read-out: MIC): 16 µg/mL
MIC ([1]; strain KPM2600, ΔompK35): 16 µg/mL
MIC ([1]; strain KPM2613, ΔompK35 ompK36_2040): 32 µg/mL
MIC ([1]; strain KPM2696, ΔacrB): 16 µg/mL
percentage of strains with xeruborbactam MIC values ≥32 µg/ml ([1]; OmpK35 full-length (n=118)): 31.4%
percentage of strains with xeruborbactam MIC values ≥32 µg/ml ([1]; OmpK35 full-length, OmpK36 GD (n=11)): 82%
percentage of strains with xeruborbactam MIC values ≥32 µg/ml ([1]; OmpK35 full-length, OmpK36 full length (n=82)): 6.1%
percentage of strains with xeruborbactam MIC values ≥32 µg/ml ([1]; OmpK35 full-length, OmpK36 non-functional (n=25)): 92%
percentage of strains with xeruborbactam MIC values ≥32 µg/ml ([1]; OmpK35 non-functional (n=318)): 49%
percentage of strains with xeruborbactam MIC values ≥32 µg/ml ([1]; OmpK35 non-functional, OmpK36 GD (n=149)): 74.5%
percentage of strains with xeruborbactam MIC values ≥32 µg/ml ([1]; OmpK35 non-functional, OmpK36 full length (n=130)): 3.4%
percentage of strains with xeruborbactam MIC values ≥32 µg/ml ([1]; OmpK35 non-functional, OmpK36 non-functional (n=39)): 95%
percentage of strains with xeruborbactam MIC values ≥32 µg/ml ([1]; OmpK36 GD (n=160)): 75%
percentage of strains with xeruborbactam MIC values ≥32 µg/ml ([1]; OmpK36 non-functional (n=65)): 92.3% and 92%
fold MIC increase ([1]; inactivation of ompK36 alone or in combination with ompK35): 2 fold and 2- to 4 fold
fold MIC increase ([1]; strain KPM1171 vs wild type): 4 fold
MIC ([2]; EC1078, PBP2 same as MG1655, PBP3 I332V): 32
MIC ([2]; EC1081, PBP2 same as MG1655, PBP3 Q227H): 8
MIC ([2]; EC1085, PBP2 T331P, PBP3 A233T I332V): 8
MIC ([2]; EC1088, PBP2 A308G, PBP3 same as MG1655): 8
MIC ([2]; EC1097, PBP2 M574I, PBP3 Q227H): 8
MIC ([2]; EC1098, PBP2 V217M, PBP3 YRIN ins, I532L): 8
MIC ([2]; EC1103, PBP2 same as MG1655, PBP3 YRIN ins, Q227H, E349K, I532L): 8
MIC ([2]; EC1105, PBP2 A543T, PBP3 YRIN ins, Q227H, E349K, I532L): 8
MIC ([2]; EC1119, PBP2 same as MG1655, PBP3 YRIN ins, Q227H, E349K, I532L): 32
MIC ([2]; EC1121, PBP2 V217M, PBP3 YRIN ins, E349K, I532L): 8
MIC50 ([2]; Escherichia coli, 334 isolates): 8 µg/mL
MIC90 ([2]; Escherichia coli, 334 isolates): 16 µg/mL
MIC range ([2]; Escherichia coli, 334 isolates): 2 to 32 µg/mL
MIC ([2]; Escherichia coli, Escherichia coli isolates, read-out: highest MIC observed): 32 µg/mL
MIC ([2]; Escherichia coli, MG1655, Escherichia coli ECM5497 (MG1655), read-out: MIC): 72 µM and 16 µg/mL
MIC ([2]; Escherichia coli, clinical isolate EC1078, OmpK35 NF, OmpK36 NF, read-out: MIC): 32 µg/mL
MIC ([2]; Escherichia coli, clinical isolate EC1081, OmpK35 FN, OmpK36 FN, read-out: MIC): 8 µg/mL
MIC ([2]; Escherichia coli, clinical isolate EC1085, OmpK35 FN, OmpK36 FN, read-out: MIC): 8 µg/mL
MIC ([2]; Escherichia coli, clinical isolate EC1088, OmpK35 FN, OmpK36 FN, read-out: MIC): 8 µg/mL
MIC ([2]; Escherichia coli, clinical isolate EC1097, OmpK35 FN, OmpK36 FN, read-out: MIC): 8 µg/mL
MIC ([2]; Escherichia coli, clinical isolate EC1098, OmpK35 NF, OmpK36 FN, read-out: MIC): 8 µg/mL
MIC ([2]; Escherichia coli, clinical isolate EC1119, OmpK35 NF, OmpK36 NF, read-out: MIC): 32 µg/mL
MIC ([2]; Escherichia coli, clinical isolate EC1121, OmpK35 NF, OmpK36 FN, read-out: MIC): 8 µg/mL
MIC ([2]; Escherichia coli, strain ECM5497, wild type, read-out: MIC): 8 µg/mL
MIC ([2]; Escherichia coli, strain ECM6001, ΔacrB): 8 µg/mL
MIC ([2]; Escherichia coli, strain ECM6502, marR (AcrAB overexpression)): 8 µg/mL
MIC ([2]; Escherichia coli, strain ECM5497, read-out: MIC): 8 µg/mL
